Data: patent publication US10765625B2, “Knottin-drug conjugates and methods of using the same” (THE BOARD OF TRUSTEES OF THE LELAND STANFORD JUNIOR …, priority 2016, dated 2020)
Positions of bridges follow the written chain, without caps; N, C: chain ends. Non-standard residues stand in square brackets, D forms with d. Residues, ends and D or L forms follow the SMILES beside them. Orn(N3) = [N-]=[N+]=NCCC[C@H](N)C(=O)O

Key:
[1] = test system: U87MG cells; test: Competition binding assay with AF488-labeled EETI-2.5F (AF488-1), flow cytometry; conditions: for IC50: competition with 1 nM AF488-1, 4° C., 3 hours, read-out: IC50 (nM), binding affinity
Protocol: Once the knottin-drug conjugates 5a-d were prepared, their binding affinity to U87MG glioblastoma cells, which are known to have elevated expression of tumor-associated integrins, was tested. […] To measure the relative binding affinities of knottins 1 and 2 and KDCs 5a-d, competition binding assays were performed using AlexaFluor 488-conjugated EETI-2.5F (AF488-1) as previously described (J. W. Kim, et al., J. Am. Chem. Soc. 2015, 137, 6-9). Cells (5×10^4 per sample) were detached with 0.05% Trypsin-EDTA, washed with IBB (25 mM Tris pH 7.4, 150 mM NaCl, 2 mM CaCl2, 1 mM MgCl2, 1 mM MnCl2, and 0.1% bovine serum albumin), and incubated with 1 nM AF488-1 and varying concentrations of competitors in 800 μL of IBB at 4° C. for 3 hours. The cells were washed twice with 800 μL of PBSA (phosphate buffered saline containing 0.1% bovine serum albumin) and the fluorescence of the surface-bound AF488-1 was determined using flow cytometry. The fluorescence was normalized to that of cells treated with AF488-1 alone to obtain the fraction bound. Half-maximal inhibitory concentration (IC50) values were determined by nonlinear regression analysis. Error bars represent the standard deviation of experiments performed in triplicate.

[2] = test system: U87MG cells; test: Integrin-blocking competition: cell proliferation (CCK-8) after pre-treatment with EETI-2.5F (1); assay type: cell-based; conditions: 1 μM 1, 3 h pre-treatment and co-treatment
Protocol: (§1) U87MG, and PANC-1 cells were grown in Dulbecco's Modified Eagle Medium (DMEM) with 10% fetal bovine serum (FBS) and 1% penicillin/streptomycin. MDA-MB-468 cells were grown in DMEM and Ham's F-12 medium (DMEM/F12) with 10% FBS and 1% penicillin/streptomycin. A2780 and BxPC3 cells were grown in Roswell Park Memorial Institute medium (RPMI) 1640+L-glutamine, with 10% FBS and 1% penicillin/streptomycin. D270 cells were grown in MEM (Richter's modification, no phenol red) with 10% FBS and 0.1% Gentamicin. Unless otherwise specified, cells were incubated at 37° C., 5% CO2. Flow cytometry was performed using an EMD Millpore Guava EasyCyte 8HT flow cytometer and the resulting data were evaluated using FlowJo software provided by TreeStar, Inc. Cell proliferation was measured using the Dojindo Cell Counting Kit-8 by replacing the media in each well with 100 μL of media containing 10% WST-8. After incubation for 1 h at 37° C., absorbance, A, at 450 nm was measured with a BioTek Synergy H4 microtiter plate reader. The background signal of CCK-8 alone was subtracted from all samples. Cell proliferation was then expressed as a percentage of absorbance relative to the control of untreated cells (Equation 2). Nonlinear regression analysis was performed using GraphPad Prism.
One possible explanation for the apparent hENT1-independence of 5d is that its route of internalization could be integrin-mediated. The role of integrin-binding in the biological potency and hENT1-independence of 5d was determined. A competition experiment was carried out in which U87MG cells were pre-treated with unconjugated EETI-2.5F (1) in order to block integrins on the cell surface. The role of integrin-binding was studied by measuring the proliferation of U87MG cells that had been pre-treated with EETI-2.5F (1) when exposed to increasing doses of 3 and KDCs 5a, 5c, and 5d. […] Media used to prepare varying concentrations of drug, protein, or protein-drug conjugate also contained 1 μM of 1. Prior to treatment, cells were incubated for 3 h at 37° C., 5% CO2 with fresh media containing 1 μM 1. After this pre-treatment, cells were incubated with varying concentrations of 5a, 5c, or 5d for 24 h and then media was replaced with fresh media and cells were incubated for an additional 48 h. Cell proliferation was measured using the Cell Counting Kit-8 by replacing the media in each well with 100 μL of media containing 10% WST-8. After incubation for 1 h at 37° C., absorbance at 450 nm was measured with a Synergy H4 microtiter plate reader. Cell proliferation was measured according to the method described in Section 1.3. Error bars represent the standard deviation of experiments performed in triplicate.

[3] = test system: U87MG cells; test: Premature drug release study: cell proliferation (CCK-8) with hENT1 inhibitor 6 co-administered; assay type: cell-based; conditions: for Fold Increase in ED50 in U87MG Cells: ED50 with 6 / ED50 without 6, minus 1
Protocol: as §1
The relative extent of premature drug-release in the cases of 5a, 5c, and 5d was next determined in order to identify the linker best-suited for delivering the drug payload intracellularly. An established technique for blocking the cellular uptake of Gemcitabine by using S (4-nitrobenzyl)-6-thioinosine (6) was employed, which is known to inhibit human equilibrative nucleoside transporters, such as hENT1. Because hENT1 is a critical regulator of the cellular internalization of Gemcitabine, it was reasoned that by inhibiting its activity with 6, the cytotoxic effect of any drug payload that was released in the extracellular environment could be diminished. It was anticipated that this would allow the distinction between KDCs that were potent due to the undesirable release of Gemcitabine outside of the cell from those that released Gemcitabine intracellularly (FIG. 6). The extent of premature drug release in the extracellular environment was studied by inhibiting activity of nucleoside transporters (such as hENT1) of U87MG cells through the use of the hENT1 inhibitor S-(4-nitrobenzyl)-6-thioinosine (6). […] In a similar fashion, it was expected that for KDCs which released a significant amount of the drug payload in the extracellular environment, an increase in the concentration of 6 should result in a concomitant increase in ED50 value.
Media used to prepare varying concentrations of drug, protein, or protein-drug conjugate also contained varying concentrations of the hENT1 inhibitor, 6. Additionally, prior to treatment, cell were incubated at 37° C., 5% CO2 with fresh media containing the varying concentrations of 6 for 2 h. Cell proliferation was measured using the Cell Counting Kit-8 by replacing the media in each well with 100 μL of media containing 10% WST-8. After incubation for 1 h at 37° C., absorbance at 450 nm was measured with a Synergy H4 microtiter plate reader. ED50 values were determined by nonlinear regression analysis. Example dose-response curves for 3 (FIG. 7) and 5d (FIG. 8) are provided. Cell proliferation was measured according to the method described in Section 1.3. Error bars represent the standard deviation of experiments performed in triplicate.
These values were normalized as Fold Increase in ED50 (defined in Equation 2) by dividing the ED50 of each drug when 6 was co-administered at concentration=C by the ED50 of that same drug when no 6 was added, then subtracting 1 (thus, a “0-fold increase” would mean no increase, while a “1-fold increase” would mean that the ED50 value had doubled). Fold Increase in ED50 for each drug at each concentration of 6 is provided in Table 5, and these values were used to generate FIG. 9.

[4] = test system: U87MG cells; test: Cell proliferation, CCK-8 colorimetric assay; assay type: cell-based; conditions: U87MG cells; for Potency / growth inhibition in U87MG cells (in words): 4 d; for EC50: 4 d incubation, vs untreated control, read-out: ED50 (nM), potency
Protocol: as §1
Next, the potency of each KDC was tested in a cell-proliferation experiment. […] Cells were seeded in a 96-well plate at a density of 2,500 cells per well and grown overnight at 37° C., 5% CO2 in DMEM with 10% FBS and 1% penicillin/streptomycin. Cells were subsequently treated with 100 μL of fresh media, containing varying concentrations of drug, protein, or protein-drug conjugate and incubated for 4 d at 37° C., 5% CO2. Cell proliferation was measured according to the method described in Section 1.3. Error bars represent the standard deviation of experiments performed in triplicate. […] Given that the linker must be cleaved to release free Gemcitabine in order for the payload to become active, the low potency of 5b can be explained by the greater stability of the carbamate group as compared to the other linkers tested.

CC(C)C[C@@H]1NC(=O)[C@@H]2CSSC[C@@H](C(=O)NCC(=O)O)NC(=O)[C@H](Cc3ccccc3)NC(=O)CNC(=O)[C@H](CC(N)=O)NC(=O)[C@@H]3CCCN3C(=O)CNC(=O)[C@@H]3CSSC[C@H](NC(=O)[C@H]([C@@H](C)O)NC(=O)[C@H](CC(C)C)NC(=O)[C@@H]4CCCN4C(=O)[C@@H]4CCCN4C(=O)[C@H](CC(N)=O)NC(=O)[C@H](CC(=O)O)NC(=O)CNC(=O)[C@H](CCCNC(=N)N)NC(=O)[C@@H]4CCCN4C(=O)[C@H](CCCNC(=N)N)NC(=O)[C@@H]4CCCN4C(=O)[C@@H](NC(=O)CN)CSSC[C@H](NC(=O)CNC(=O)[C@H](C)NC1=O)C(=O)N[C@@H](C(C)C)C(=O)N3)C(=O)N[C@@H](CCCn1cc(CCC(=O)OC[C@H]3O[C@@H](n4ccc(N)nc4=O)C(F)(F)[C@@H]3O)nn1)C(=O)N[C@@H](CCC(N)=O)C(=O)N[C@@H](CC(=O)O)C(=O)N[C@@H](CO)C(=O)N[C@@H](CC(=O)O)C(=O)N2 [5a]
IC50 [1]: 5.2 ± 3.6 nM | Effect of integrin blocking by pre-treatment with 1 on potency (in words) [2]: did not diminish the potency | Effect of hENT1 inhibitor 6 on potency (ED50) (in words) ([3]; U87MG cells, increasing concentrations of 6 up to 10 μM): increased significantly | Fold Increase in ED50 in U87MG Cells ([3]; [6] = 0 nM): 0 | Fold Increase in ED50 in U87MG Cells ([3]; [6] = 1 nM): 1.1 ± 0.5 | Fold Increase in ED50 in U87MG Cells ([3]; [6] = 10 nM): 3.2 ± 0.3 | Fold Increase in ED50 in U87MG Cells ([3]; [6] = 100 nM): 14.5 ± 0.5 | Fold Increase in ED50 in U87MG Cells ([3]; [6] = 1000 nM): 17.9 ± 0.0 | Fold Increase in ED50 in U87MG Cells ([3]; [6] = 10000 nM): 134.7 ± 0.4 | Potency / growth inhibition in U87MG cells (in words) [4]: low-nanomolar ED50 values | EC50 [4]: 8.5 ± 3.3 nM

CC(C)C[C@@H]1NC(=O)[C@@H]2CSSC[C@@H](C(=O)NCC(=O)O)NC(=O)[C@H](Cc3ccccc3)NC(=O)CNC(=O)[C@H](CC(N)=O)NC(=O)[C@@H]3CCCN3C(=O)CNC(=O)[C@@H]3CSSC[C@H](NC(=O)[C@H]([C@@H](C)O)NC(=O)[C@H](CC(C)C)NC(=O)[C@@H]4CCCN4C(=O)[C@@H]4CCCN4C(=O)[C@H](CC(N)=O)NC(=O)[C@H](CC(=O)O)NC(=O)CNC(=O)[C@H](CCCNC(=N)N)NC(=O)[C@@H]4CCCN4C(=O)[C@H](CCCNC(=N)N)NC(=O)[C@@H]4CCCN4C(=O)[C@@H](NC(=O)CN)CSSC[C@H](NC(=O)CNC(=O)[C@H](C)NC1=O)C(=O)N[C@@H](C(C)C)C(=O)N3)C(=O)N[C@@H](CCCn1cc(CCCNC(=O)OC[C@H]3O[C@@H](n4ccc(N)nc4=O)C(F)(F)[C@@H]3O)nn1)C(=O)N[C@@H](CCC(N)=O)C(=O)N[C@@H](CC(=O)O)C(=O)N[C@@H](CO)C(=O)N[C@@H](CC(=O)O)C(=O)N2 [5b]
IC50 [1]: 3.3 ± 0.2 nM | Potency / growth inhibition in U87MG cells (in words) [4]: lacked significant potency | EC50 [4]: > 1000 nM

CC(C)C[C@@H]1NC(=O)[C@@H]2CSSC[C@@H](C(=O)NCC(=O)O)NC(=O)[C@H](Cc3ccccc3)NC(=O)CNC(=O)[C@H](CC(N)=O)NC(=O)[C@@H]3CCCN3C(=O)CNC(=O)[C@@H]3CSSC[C@H](NC(=O)[C@H]([C@@H](C)O)NC(=O)[C@H](CC(C)C)NC(=O)[C@@H]4CCCN4C(=O)[C@@H]4CCCN4C(=O)[C@H](CC(N)=O)NC(=O)[C@H](CC(=O)O)NC(=O)CNC(=O)[C@H](CCCNC(=N)N)NC(=O)[C@@H]4CCCN4C(=O)[C@H](CCCNC(=N)N)NC(=O)[C@@H]4CCCN4C(=O)[C@@H](NC(=O)CN)CSSC[C@H](NC(=O)CNC(=O)[C@H](C)NC1=O)C(=O)N[C@@H](C(C)C)C(=O)N3)C(=O)N[C@@H](CCCN=[N+]=[N-])C(=O)N[C@@H](CCC(N)=O)C(=O)N[C@@H](CC(=O)O)C(=O)N[C@@H](CO)C(=O)N[C@@H](CC(=O)O)C(=O)N2 [compound 2] (H-GCPRPRGDNPPLTC[Orn(N3)]QDSDCLAGCVCGPNGFCG-OH; disulfide 2-24, 14-26, 20-32; N-terminus and C-terminus assumed)
Binding affinity to U87MG cells (in words) [1]: low-nanomolar binding affinity | IC50 [1]: 1.1 ± 1.8 nM | Potency / growth inhibition in U87MG cells (in words) [4]: did not show significant growth-inhibition activity | EC50 [4]: > 1000 nM
